In ChEMBL document CHEMBL5500383, “Recent advances and future directions on small molecule VEGFR inhibitors in oncological conditions” (Eur J Med Chem, 2024):
One block for each compound: values may come before it.

How the values were obtained:
[1] = test system: A498; experiment: Cytotoxicity against human A498 cells assessed as reduction in cell viability incubated for 48 hrs by MTT assay; assay type: functional, cell-based; conditions: A498, 48 h
[2] = test system: CAKI-1; experiment: Cytotoxicity against human CAKI-1 cells assessed as reduction in cell growth incubated for 48 hrs by MTT assay; assay type: functional, cell-based; conditions: CAKI-1, 48 h
[3] = Cytotoxicity against African green monkey Vero cells assessed as inhibition of cell growth incubated for 24 hrs by MTT assay; assay type: toxicity, cell-based, Chlorocebus sabaeus
[4] = test system: HepG2; experiment: Cytotoxicity against human HepG2 cells assessed as reduction in cell viability measured after 72 hrs by MTT assay; assay type: functional, cell-based; conditions: HepG2, 72 h
[5] = test system: MCF7; experiment: Cytotoxicity against human MCF7 cells assessed as reduction in cell viability measured after 72 hrs by MTT assay; assay type: functional, cell-based; conditions: MCF7, 72 h
[6] = biological target: T1, Vascular endothelial growth factor receptor 2 (Homo sapiens, UniProt P35968); experiment: Inhibition of human recombinant VEGFR2 using biotinylated poly-GluTyr (4:1) as susbtrate measured for 1 hr by ELISA method
[7] = test system: HCT-116; experiment: Cytotoxicity against human HCT-116 cells assessed as reduction in cell viability measured after 72 hrs by MTT assay; assay type: functional, cell-based; conditions: HCT-116, 72 h
[8] = test system: MCF7; experiment: Antiproliferative activity against human MCF7 cells assessed as cell growth inhibition measured for 24 hrs by MTT assay; assay type: functional, cell-based; conditions: MCF7, 24 h
[9] = biological target: T2, Protein deacetylase HDAC6 (Homo sapiens, UniProt Q9UBN7); experiment: Inhibition of HDAC6 (unknown origin)
T2 sequence (Q9UBN7 whole entry): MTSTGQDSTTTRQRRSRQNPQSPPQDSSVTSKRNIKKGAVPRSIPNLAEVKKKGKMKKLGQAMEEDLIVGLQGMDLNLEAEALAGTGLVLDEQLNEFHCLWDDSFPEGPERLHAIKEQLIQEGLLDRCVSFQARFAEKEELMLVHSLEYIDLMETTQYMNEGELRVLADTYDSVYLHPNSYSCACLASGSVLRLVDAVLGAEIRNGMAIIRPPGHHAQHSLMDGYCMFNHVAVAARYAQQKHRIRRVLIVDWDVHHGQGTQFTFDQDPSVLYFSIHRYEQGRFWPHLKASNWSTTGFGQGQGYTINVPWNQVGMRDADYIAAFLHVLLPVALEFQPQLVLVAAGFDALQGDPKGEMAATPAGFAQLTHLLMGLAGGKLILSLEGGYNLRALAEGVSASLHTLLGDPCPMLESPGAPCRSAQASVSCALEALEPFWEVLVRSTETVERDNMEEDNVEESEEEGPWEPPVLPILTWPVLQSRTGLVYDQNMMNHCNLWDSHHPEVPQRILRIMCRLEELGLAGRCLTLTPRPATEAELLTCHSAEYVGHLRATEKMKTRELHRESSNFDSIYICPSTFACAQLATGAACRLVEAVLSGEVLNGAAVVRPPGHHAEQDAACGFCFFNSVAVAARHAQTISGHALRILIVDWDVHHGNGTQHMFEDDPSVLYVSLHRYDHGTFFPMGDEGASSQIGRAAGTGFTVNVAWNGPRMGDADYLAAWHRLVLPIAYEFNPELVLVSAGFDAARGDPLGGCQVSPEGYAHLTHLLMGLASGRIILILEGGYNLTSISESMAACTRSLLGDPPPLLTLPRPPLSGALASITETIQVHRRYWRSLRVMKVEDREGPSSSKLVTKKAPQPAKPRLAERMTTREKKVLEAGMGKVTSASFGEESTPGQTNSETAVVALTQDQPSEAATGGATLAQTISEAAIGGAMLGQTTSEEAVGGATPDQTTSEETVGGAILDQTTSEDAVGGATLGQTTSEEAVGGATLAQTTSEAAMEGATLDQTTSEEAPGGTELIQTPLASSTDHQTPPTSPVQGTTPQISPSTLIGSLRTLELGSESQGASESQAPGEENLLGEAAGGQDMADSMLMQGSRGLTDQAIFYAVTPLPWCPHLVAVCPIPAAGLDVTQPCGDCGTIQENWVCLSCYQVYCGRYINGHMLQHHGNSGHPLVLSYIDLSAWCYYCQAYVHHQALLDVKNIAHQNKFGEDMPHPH

[10] = biological target: Histone deacetylase 4 (Homo sapiens, UniProt P56524); experiment: Inhibition of HDAC4 (unknown origin)
[11] = biological target: Vascular endothelial growth factor receptor 3 (Homo sapiens, UniProt P35916); experiment: Inhibition of VEGFR3 (unknown origin)
[12] = biological target: Vascular endothelial growth factor receptor 1 (Homo sapiens, UniProt P17948); experiment: Inhibition of VEGFR1 (unknown origin)
[13] = biological target: Histone deacetylase 1 (Homo sapiens, UniProt Q13547); experiment: Inhibition of HDAC1 (unknown origin)
[14] = biological target: T1, Vascular endothelial growth factor receptor 2; experiment: Inhibition of VEGFR2 (unknown origin)
[15] = biological target: T1, Vascular endothelial growth factor receptor 2; experiment: Inhibition of VEGFR2 (unknown origin) by FRET based assay
[16] = biological target: T1, Vascular endothelial growth factor receptor 2; experiment: Inhibition of VEGFR2 (unknown origin) by kinase profiling assay
[17] = biological target: T1, Vascular endothelial growth factor receptor 2; experiment: Inhibition of human VEGFR2 by discoverX kinome scan assay
[18] = Cytotoxicity against HUVEC cells assessed as cell growth inhibition incubated for 72 hrs by MTT assay; assay type: toxicity, cell-based; conditions: human
[19] = biological target: Serine/threonine-protein kinase B-raf (Homo sapiens, UniProt P15056, V600E); experiment: Inhibition of BRAF V600E mutant (unknown origin)
[20] = biological target: RAF proto-oncogene serine/threonine-protein kinase (Homo sapiens, UniProt P04049); experiment: Inhibition of C-RAF (unknown origin)
[21] = Inhibition of VEGFR (unknown origin); design: species or system Homo sapiens
[22] = biological target: T1, Vascular endothelial growth factor receptor 2; experiment: Inhibition of human recombinant VEGFR2
[23] = biological target: Serine/threonine-protein kinase B-raf (Homo sapiens, UniProt P15056); experiment: Inhibition of wild type BRAF (unknown origin)
[24] = test system: MCF7; experiment: Cytotoxicity against human MCF7 cells assessed as inhibition of cell growth incubated for 48 hrs by MTT assay; assay type: functional, cell-based; conditions: MCF7, 48 h
[25] = test system: PC-3; experiment: Cytotoxicity against human PC-3 cells assessed as inhibition of cell growth incubated for 48 hrs by MTT assay; assay type: functional, cell-based; conditions: PC-3, 48 h
[26] = test system: HCT-116; experiment: Cytotoxicity against human HCT-116 cells assessed as inhibition of cell growth incubated for 48 hrs by MTT assay; assay type: functional, cell-based; conditions: HCT-116, 48 h
[27] = test system: HepG2; experiment: Cytotoxicity against human HepG2 cells assessed as inhibition of cell growth incubated for 48 hrs by MTT assay; assay type: functional, cell-based; conditions: HepG2, 48 h
[28] = biological target: T1, Vascular endothelial growth factor receptor 2; experiment: Inhibition of VEGFR2 (unknown origin) incubated for 1 hr in presence of ATP by ELISA method
[29] = biological target: Epidermal growth factor receptor (Homo sapiens, UniProt P00533); experiment: Inhibition of EGFR (unknown origin) by DiscoverX KINOMEscan assay
[30] = test system: HepG2; experiment: Antiproliferative activity against human HepG2 cells assessed as cell growth inhibition measured for 24 hrs by MTT assay; assay type: functional, cell-based; conditions: HepG2, 24 h
[31] = test system: A549; experiment: Antiproliferative activity against human A549 cells assessed as cell growth inhibition measured for 24 hrs by MTT assay; assay type: functional, cell-based; conditions: A549, 24 h
[32] = test system: MCF7; experiment: Antiproliferative actiivty against human MCF7 cells assessed as reduction in cell viability by MTT assay; assay type: functional, cell-based
[33] = test system: HCT-116; experiment: Antiproliferative actiivty against human HCT-116 cells assessed as reduction in cell viability by MTT assay; assay type: functional, cell-based
[34] = biological target: T1, Vascular endothelial growth factor receptor 2; experiment: Inhibition of human VEGFR2
[35] = Antiproliferative actiivty against human WI-38 cells assessed as reduction in cell viability by MTT assay; assay type: toxicity, cell-based

T1 sequence (P35968 whole entry): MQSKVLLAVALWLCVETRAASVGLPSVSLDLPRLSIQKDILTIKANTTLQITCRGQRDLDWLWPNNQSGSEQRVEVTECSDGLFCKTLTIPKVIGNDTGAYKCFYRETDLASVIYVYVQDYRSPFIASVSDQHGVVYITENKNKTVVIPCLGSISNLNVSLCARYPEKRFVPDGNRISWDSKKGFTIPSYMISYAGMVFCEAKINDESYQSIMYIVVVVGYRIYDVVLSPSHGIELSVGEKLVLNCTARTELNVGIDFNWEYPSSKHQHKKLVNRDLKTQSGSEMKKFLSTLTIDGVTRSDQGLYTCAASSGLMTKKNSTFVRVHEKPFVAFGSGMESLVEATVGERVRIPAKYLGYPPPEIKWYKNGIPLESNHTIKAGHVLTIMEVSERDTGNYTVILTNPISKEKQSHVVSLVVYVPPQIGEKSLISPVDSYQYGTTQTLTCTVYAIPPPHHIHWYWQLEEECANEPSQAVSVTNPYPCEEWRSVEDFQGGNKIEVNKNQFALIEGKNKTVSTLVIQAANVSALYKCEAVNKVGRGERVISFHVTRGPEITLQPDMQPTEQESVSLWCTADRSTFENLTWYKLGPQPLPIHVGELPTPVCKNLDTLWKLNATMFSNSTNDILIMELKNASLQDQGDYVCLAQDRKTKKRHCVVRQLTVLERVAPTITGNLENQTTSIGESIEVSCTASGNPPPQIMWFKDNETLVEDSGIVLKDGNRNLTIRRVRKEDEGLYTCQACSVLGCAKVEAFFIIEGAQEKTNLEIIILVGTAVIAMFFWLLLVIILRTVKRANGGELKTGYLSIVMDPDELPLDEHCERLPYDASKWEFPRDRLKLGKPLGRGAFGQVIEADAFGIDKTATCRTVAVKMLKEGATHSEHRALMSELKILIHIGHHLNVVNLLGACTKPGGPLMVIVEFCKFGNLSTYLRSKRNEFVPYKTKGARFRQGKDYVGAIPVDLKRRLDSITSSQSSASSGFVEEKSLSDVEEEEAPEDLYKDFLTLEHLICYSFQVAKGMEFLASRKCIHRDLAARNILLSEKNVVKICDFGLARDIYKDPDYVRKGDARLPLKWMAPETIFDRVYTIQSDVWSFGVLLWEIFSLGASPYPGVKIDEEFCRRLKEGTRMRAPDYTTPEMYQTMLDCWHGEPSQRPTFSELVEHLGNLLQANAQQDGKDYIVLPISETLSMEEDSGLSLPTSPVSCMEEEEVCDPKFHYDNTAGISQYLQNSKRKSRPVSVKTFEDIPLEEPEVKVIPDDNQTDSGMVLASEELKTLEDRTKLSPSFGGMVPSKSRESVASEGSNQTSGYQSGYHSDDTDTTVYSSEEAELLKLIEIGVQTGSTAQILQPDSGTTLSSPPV
Sequence of Histone deacetylase 4 (P56524 whole entry): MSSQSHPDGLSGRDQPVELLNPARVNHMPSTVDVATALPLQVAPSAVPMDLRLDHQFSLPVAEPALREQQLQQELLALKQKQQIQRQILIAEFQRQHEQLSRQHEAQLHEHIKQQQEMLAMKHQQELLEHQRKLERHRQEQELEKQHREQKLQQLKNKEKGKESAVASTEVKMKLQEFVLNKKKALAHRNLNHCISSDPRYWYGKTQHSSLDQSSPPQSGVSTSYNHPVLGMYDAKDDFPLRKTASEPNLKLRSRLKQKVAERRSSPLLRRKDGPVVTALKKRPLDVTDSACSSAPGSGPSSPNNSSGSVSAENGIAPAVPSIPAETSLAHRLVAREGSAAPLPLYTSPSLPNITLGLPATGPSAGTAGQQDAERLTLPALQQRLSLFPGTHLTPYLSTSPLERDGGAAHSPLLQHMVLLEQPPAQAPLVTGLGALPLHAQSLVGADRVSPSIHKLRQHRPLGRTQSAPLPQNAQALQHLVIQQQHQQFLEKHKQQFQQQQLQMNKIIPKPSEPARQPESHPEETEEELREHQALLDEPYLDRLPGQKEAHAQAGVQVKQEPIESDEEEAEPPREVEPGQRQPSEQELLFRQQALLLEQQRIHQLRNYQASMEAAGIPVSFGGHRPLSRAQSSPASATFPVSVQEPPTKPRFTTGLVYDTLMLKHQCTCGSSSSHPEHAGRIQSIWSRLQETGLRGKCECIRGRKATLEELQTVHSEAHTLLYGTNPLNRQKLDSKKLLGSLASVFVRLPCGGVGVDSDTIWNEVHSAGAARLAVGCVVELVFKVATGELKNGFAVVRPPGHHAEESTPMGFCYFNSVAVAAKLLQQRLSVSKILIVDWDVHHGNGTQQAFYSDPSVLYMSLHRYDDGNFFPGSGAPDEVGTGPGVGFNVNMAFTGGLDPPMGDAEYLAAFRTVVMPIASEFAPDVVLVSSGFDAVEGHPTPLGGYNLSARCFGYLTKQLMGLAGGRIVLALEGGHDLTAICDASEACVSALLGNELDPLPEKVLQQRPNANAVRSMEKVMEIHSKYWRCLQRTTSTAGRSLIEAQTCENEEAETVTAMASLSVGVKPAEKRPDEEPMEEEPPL
Sequence of Serine/threonine-protein kinase B-raf (Homo sapiens, UniProt P15056, V600E) (P15056 2-766 V600E limits assumed): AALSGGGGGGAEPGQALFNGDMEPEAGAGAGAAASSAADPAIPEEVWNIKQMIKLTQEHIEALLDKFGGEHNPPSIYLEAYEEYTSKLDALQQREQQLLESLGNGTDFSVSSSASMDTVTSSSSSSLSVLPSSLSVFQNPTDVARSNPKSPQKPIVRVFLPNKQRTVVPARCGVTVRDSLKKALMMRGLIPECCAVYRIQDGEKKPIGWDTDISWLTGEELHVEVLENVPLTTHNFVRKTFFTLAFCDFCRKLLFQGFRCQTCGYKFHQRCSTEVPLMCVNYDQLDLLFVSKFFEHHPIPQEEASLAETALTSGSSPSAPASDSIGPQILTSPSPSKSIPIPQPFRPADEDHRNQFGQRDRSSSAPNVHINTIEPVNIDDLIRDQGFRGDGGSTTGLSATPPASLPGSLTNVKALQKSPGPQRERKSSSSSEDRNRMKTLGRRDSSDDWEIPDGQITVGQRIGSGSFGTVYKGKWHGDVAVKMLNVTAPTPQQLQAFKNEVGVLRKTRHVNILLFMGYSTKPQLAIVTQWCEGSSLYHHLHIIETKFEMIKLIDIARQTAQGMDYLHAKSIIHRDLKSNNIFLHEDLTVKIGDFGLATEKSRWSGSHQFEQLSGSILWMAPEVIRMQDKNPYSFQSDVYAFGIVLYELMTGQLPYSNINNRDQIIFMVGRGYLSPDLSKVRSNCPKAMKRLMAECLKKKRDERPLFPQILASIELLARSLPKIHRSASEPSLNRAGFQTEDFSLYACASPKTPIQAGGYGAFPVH
Sequence of Epidermal growth factor receptor (P00533 whole entry): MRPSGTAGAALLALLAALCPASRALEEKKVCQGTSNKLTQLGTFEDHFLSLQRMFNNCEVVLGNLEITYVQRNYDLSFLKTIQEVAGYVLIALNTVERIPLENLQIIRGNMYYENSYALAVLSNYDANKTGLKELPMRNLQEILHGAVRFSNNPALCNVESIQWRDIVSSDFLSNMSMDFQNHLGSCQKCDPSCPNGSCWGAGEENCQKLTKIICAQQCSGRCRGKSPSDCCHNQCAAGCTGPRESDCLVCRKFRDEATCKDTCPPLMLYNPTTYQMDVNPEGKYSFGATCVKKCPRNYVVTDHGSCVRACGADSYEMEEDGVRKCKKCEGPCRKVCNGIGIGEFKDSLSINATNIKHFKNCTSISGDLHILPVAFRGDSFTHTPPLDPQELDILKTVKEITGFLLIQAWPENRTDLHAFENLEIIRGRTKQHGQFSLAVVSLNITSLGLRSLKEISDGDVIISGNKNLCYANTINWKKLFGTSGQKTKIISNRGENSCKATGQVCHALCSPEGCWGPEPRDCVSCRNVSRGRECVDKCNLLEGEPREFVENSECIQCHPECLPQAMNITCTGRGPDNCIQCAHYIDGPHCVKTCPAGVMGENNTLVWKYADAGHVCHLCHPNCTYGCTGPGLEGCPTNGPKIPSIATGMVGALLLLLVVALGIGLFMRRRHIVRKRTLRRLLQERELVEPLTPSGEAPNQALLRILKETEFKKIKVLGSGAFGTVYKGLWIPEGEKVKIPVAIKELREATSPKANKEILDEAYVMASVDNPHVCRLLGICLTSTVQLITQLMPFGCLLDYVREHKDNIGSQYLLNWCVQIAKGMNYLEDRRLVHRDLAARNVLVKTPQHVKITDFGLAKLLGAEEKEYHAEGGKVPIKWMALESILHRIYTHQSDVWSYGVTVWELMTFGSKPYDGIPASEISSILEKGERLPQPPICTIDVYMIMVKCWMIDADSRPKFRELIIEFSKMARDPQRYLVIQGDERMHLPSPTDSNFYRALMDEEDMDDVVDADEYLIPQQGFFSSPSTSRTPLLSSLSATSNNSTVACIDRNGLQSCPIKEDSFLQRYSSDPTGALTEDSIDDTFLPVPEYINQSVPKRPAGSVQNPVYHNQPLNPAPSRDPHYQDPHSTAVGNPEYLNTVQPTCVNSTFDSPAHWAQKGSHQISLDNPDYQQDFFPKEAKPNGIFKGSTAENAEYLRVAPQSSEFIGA
Sequence of Histone deacetylase 1 (Q13547 whole entry): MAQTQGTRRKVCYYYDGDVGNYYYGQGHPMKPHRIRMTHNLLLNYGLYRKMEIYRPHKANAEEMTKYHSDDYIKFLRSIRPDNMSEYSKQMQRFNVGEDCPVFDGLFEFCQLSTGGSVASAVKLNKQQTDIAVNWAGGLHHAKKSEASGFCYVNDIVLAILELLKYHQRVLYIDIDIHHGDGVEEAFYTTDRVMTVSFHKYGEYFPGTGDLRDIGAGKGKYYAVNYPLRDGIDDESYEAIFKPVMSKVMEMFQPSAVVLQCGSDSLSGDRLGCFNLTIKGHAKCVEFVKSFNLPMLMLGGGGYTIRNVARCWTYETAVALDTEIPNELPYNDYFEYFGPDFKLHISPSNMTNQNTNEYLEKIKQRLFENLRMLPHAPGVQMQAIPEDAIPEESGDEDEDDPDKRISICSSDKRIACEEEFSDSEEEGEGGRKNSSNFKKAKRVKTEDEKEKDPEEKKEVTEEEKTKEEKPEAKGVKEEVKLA

Structure (SMILES): Cc1ccc(/C=N/n2c(-c3cc4ccccc4[nH]3)n[nH]c2=S)cc1
IC50 [1]: 7.36 µM
IC50 [2]: 6.28 µM

IC50 [6]: 0.15 µM
Structure (SMILES): CCOC(=O)/C(=N\Nc1ccc(S(=O)(=O)Nc2nc(C)cc(C)n2)cc1)C(=O)NNc1ccccc1
IC50 at 24 h [3]: 59.8 µM
IC50 [4]: 8.97 µM
IC50 [5]: 13.8 µM
IC50 [7]: 10.1 µM

IC50 [8]: 0.66 µM
Structure (SMILES): Cc1cc(Oc2ncnc3sc4c(c23)CCCCC4)ccc1Cl

IC50 [9]: 0.063 µM
IC50 [10]: > 9.17 µM
IC50 [11]: 0.066 µM
IC50 [12]: 0.041 µM
IC50 [13]: 0.24 µM
IC50 [14]: 0.032 µM
Structure (SMILES): Cc1c2ccc(Nc3ccnc(Nc4ccc(OCCCCCCC(=O)NO)cc4)n3)cc2nn1C

IC50 [15]: 0.0388 µM
Structure (SMILES): O=C(CN1CCN(c2cc(=O)[nH]c3c(-c4ccccc4)cccc23)CC1)Nc1ccc(F)cc1

IC50 [6]: 0.15 µM
Structure (SMILES): Cc1cc(NS(=O)(=O)c2ccc(NN=C3C(=O)NNC3=O)cc2)no1
IC50 at 24 h [3]: 36.3 µM
IC50 [4]: 8.65 µM
IC50 [5]: 14.3 µM
IC50 [7]: 7.49 µM

IC50 [16]: 58 µM
IC50 [17]: 58 µM
Structure (SMILES): COc1ccc(-c2nc3c4cc(-c5ccc(OC)cc5)oc4ccn3n2)cc1
IC50 at 72 h [18]: 22.6 µM

IC50 [19]: > 100 µM
IC50 [20]: > 100 µM
IC50 [21]: 20.6 µM
Structure (SMILES): COc1ccc(-n2c(SCC(=O)Nc3ccc(-c4nc5ccccc5[nH]4)cc3)nc3ccccc3c2=O)cc1

IC50 [22]: 0.0524 µM
Structure (SMILES): Cc1[nH]c2ncnc(Nc3ccc(NC(=O)Nc4cccc(C(F)(F)F)c4)c(F)c3)c2c1C

IC50 [9]: 8.96 µM
IC50 [10]: > 10 µM
IC50 [11]: 0.037 µM
IC50 [12]: 0.034 µM
Structure (SMILES): CCCNNC(=O)c1ccc(Nc2nccc(N(C)c3ccc4c(C)n(C)nc4c3)n2)cc1

Structure (SMILES): COc1ccc(/C=N/n2c(-c3cc4ccccc4[nH]3)n[nH]c2=S)cc1
IC50 [1]: 20.6 µM
IC50 [2]: 1.63 µM

IC50 [19]: 0.089 µM
IC50 [23]: 0.071 µM
IC50 [14]: 0.111 µM
Structure (SMILES): O=C(CSc1nc2sc3c(c2c(=O)n1-c1ccc(Cl)cc1)CCCC3)NNC(=O)Nc1cccc(C(F)(F)F)c1

IC50 [14]: 9.4 µM
Structure (SMILES): O=C(NC1=NN2C(=O)/C(=C/c3ccco3)N=C2S1)c1cccs1
IC50 [24]: 4.36 µM
IC50 [25]: 8.01 µM
IC50 [26]: 5.26 µM
IC50 [27]: 6.8 µM

IC50 [28]: 199 µM
Structure (SMILES): COc1cc(-c2nc(SCC(=O)Nc3ccc(C(C)=O)cc3)[nH]c(=O)c2C#N)cc(OC)c1OC

IC50 [29]: 11.4 µM
IC50 [30]: 2.44 µM
IC50 [8]: 1.63 µM
IC50 [31]: 1.27 µM
Structure (SMILES): CCOC(=O)/C(C#N)=C(\c1ccc(O)cc1)N1CC(=O)N(/N=C(\C)c2ccc(O)cc2O)C1=S

IC50 [32]: 3.57 µM
IC50 [33]: 4.28 µM
IC50 [34]: 0.144 µM
Structure (SMILES): O=C(c1ccccc1)n1cc(-c2nc3cc(Cl)ccc3[nH]c2=O)c(=O)[nH]1
IC50 [35]: 99.2 µM

IC50 [29]: 23.2 µM
IC50 [30]: 5.18 µM
IC50 [8]: 2.26 µM
IC50 [31]: 3.14 µM
Structure (SMILES): C/C(=N\N1C(=O)CNC1=S)c1ccc(O)cc1O
